Patent US20070009597A1, “Active substance combination comprising a compound with npy receptor affinity and a compound with 5-ht6 receptor affinity” (LABORATORIOS DEL DR. ESTEVE S.A., priority 2003, published 2007)
Structures can show the parent of a compound that is named as a salt. Where two headings read alike, the source gives them in different places.

Biological target: T1, recombinant human 5HT6 receptor (Homo sapiens, UniProt P50406)
T1 construct: purchased Receptor Biology; host or cells: HEK-293
T1 sequence (P50406 whole entry): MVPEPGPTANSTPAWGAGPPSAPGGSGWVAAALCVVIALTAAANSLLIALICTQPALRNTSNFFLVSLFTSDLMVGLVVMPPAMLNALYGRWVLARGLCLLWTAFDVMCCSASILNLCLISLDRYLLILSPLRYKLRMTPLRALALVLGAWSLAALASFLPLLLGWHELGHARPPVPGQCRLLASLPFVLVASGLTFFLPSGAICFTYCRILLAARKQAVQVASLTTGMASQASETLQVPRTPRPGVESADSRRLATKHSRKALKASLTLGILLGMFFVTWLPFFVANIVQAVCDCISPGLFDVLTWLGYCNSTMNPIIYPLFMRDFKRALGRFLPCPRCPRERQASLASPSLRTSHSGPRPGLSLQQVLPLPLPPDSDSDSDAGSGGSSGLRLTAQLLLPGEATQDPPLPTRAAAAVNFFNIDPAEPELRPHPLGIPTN
Assay: Binding to the 5HT6 serotonin receptor ([3H]-LSD, HEK-293 cell membranes)
Conditions: for inhibition at 1 µM: read-out: % Inhibition 10^−6 M
Description: Binding to the 5HT6 Serotonin Receptor
The respective part of the literature descriptions is incorporated here by reference and form part of the disclosure. […] The assays are carried out in triplicate.

[1] = 10^−6 M, table 1d, compounds of general formula (Id)
[2] = 10^−6 M, table 1f, compounds of general formula (If)
[3] = table 1f, compounds of general formula (If)
[4] = table 1c, compounds of general formula (Ic)
[5] = table 1e, compounds of general formula (Ie)
[6] = 10^−6 M, table 1c, compounds of general formula (Ic)

CN(C)CCn1ccc2c(NS(=O)(=O)c3ccc(-c4ccccc4)cc3)cccc21 [Example 4d, N-[1-(2-dimethylaminoethyl)-1H-indole-4-yl]-4-phenylbenzenesulfonamide] was tested, and the inhibition at 1 µM [1] was 46.6%.
For CN1CC=C(c2cn(S(=O)(=O)C3CCCCC3)c3ccc([N+](=O)[O-])cc23)CC1 [Example 1h, 1-cyclohexanesulfonyl-3-(1-methyl-1,2,3,6-tetrahydropyridine-4-yl)-5-nitro-1H-indole], the inhibition at 1 µM (10^−6 M, table 1h, compounds of general formula (Ih)) was 59.8 ± 3%.
CN(C)CCn1ccc2ccc(NS(=O)(=O)c3c(Cl)nc4sccn34)cc21 [Example 4f, N-[1-(2-Dimethylaminoethyl)-1H-indol-6-yl]-6-chloroimidazo[2,1-b]thiazole-5-sulfonamide] gave an inhibition at 1 µM [2] of 90.8% and a Ki [3] of 55.2 nM.
CN(C)CCn1ccc2ccc(NS(=O)(=O)c3ccc(-c4ccccc4)cc3)cc21 [Example 5f, N-[1-(2-Dimethylaminoethyl)-1H-indol-6-yl]-4-phenylbenzenesulfonamide] gave an inhibition at 1 µM [2] of 93.4%.
CCN(CC)CCc1c[nH]c2ccc(NS(=O)(=O)c3ccc4ccccc4c3)cc12 [Example 17c, N-[3-(2-diethylaminoethyl)-1H-indol-5-yl]naphthalene-2-sulphonamide] gave a Ki [4] of 5.3 nM.
Compound CN1CCC(c2c[nH]c3ccc(NS(=O)(=O)c4cccc5ccccc45)cc23)CC1 [Example 13c, N-[3-(1-methylpiperidin-4-yl)-1H-indol-5-yl]naphthalene-1-sulphonamide hydrochloride] has a Ki of 4.7 nM.
For CN(C)CCn1ccc2ccc(NS(=O)(=O)c3ccc(Oc4ccccc4)cc3)cc21 [Example 7f, N-[1-(2-Dimethylaminoethyl)-1H-indol-6-yl]-4-phenoxybenzenesulfonamide], the “% Inhibition 10^−6 M” value [2] was 95.1% and the Ki [3] was 119 nM.
CN(C)CCn1ccc2ccc(NS(=O)(=O)c3cccc4ccccc34)cc21 [Example 3f, N-[1-(2-Dimethylaminoethyl)-1H-indol-6-yl]-naphthalene-1-sulfonamide] was tested, and the “% Inhibition 10^−6 M” value [2] was 95.3% and the Ki [3] was 19.8 nM.
Work on CN(C)CCn1ccc2cc(NS(=O)(=O)c3cc(Cl)cc(Cl)c3)ccc21 [Example 12e, N-[1-(2-dimethylaminoethyl)-1H-indole-5-yl]-3,5-dichlorobenzenesulfonamide] yielded a Ki [5] of 105 nM.
Work on CCN(CC)CCc1c[nH]c2ccc(NS(=O)(=O)c3ccc(-c4ccccc4)cc3)cc12 [Example 5c, N-[3-(2-diethylaminoethyl)-1H-indol-5-yl]-4-phenylbenzenesulphonamide] yielded a Ki [4] of 1 nM.
In the case of CN(C)CCn1ccc2c(NS(=O)(=O)c3ccc4ccccc4c3)cccc21 [Example 2d, N-[1-(2-dimethylaminoethyl)-1H-indole-4-yl]-naphtalene-2-sulfonamide], the “% Inhibition 10^−6 M” value [1] is reported as 104.3%.
In the case of CN(C)CCn1ccc2cc(NS(=O)(=O)c3cccc4c(Cl)cccc34)ccc21 [Example 4e, N-[1-(2-dimethylaminoethyl)-1H-indole-5-yl]-5-chloronaphthalene-1-sulfonamide], the Ki [5] is reported as 112 nM.
Compound Cc1c(S(=O)(=O)Nc2ccc3ccn(CCN(C)C)c3c2)sc2ccc(Cl)cc12 [Example 1f, N-[1-(2-Dimethylaminoethyl)-1H-indol-6-yl]-5-chloro-3-methylbenzo[b]thiophene-2-sulfonamide] has an inhibition at 1 µM [2] of 98.6% and a Ki [3] of 90.2 nM.
Work on CN(C)CCn1ccc2ccc(NS(=O)(=O)CCc3cccc4ccccc34)cc21 [Example 6f, N-[1-(2-Dimethylaminoethyl)-1H-indol-6-yl]-2-(naphthalene-1-yl)-ethanesulfonamide] yielded an inhibition at 1 µM [2] of 94.5% and a Ki [3] of 74.5 nM.
For CN1CCC(c2c[nH]c3ccc(NS(=O)(=O)c4cccc5cccnc45)cc23)CC1 [Example 16c, N-[3-(1-methylpiperidin-4-yl)-1H-indol-5-yl]quinoline-8-sulphonamide], the “% Inhibition 10^−6 M” value [6] was 94.4 ± 8.6% and the Ki [4] was 21.2 nM.
For Cc1c(S(=O)(=O)Nc2cccc3c2ccn3CCN(C)C)sc2ccc(Cl)cc12 [Example 1d, N-[1-(2-dimethylaminoethyl)-1H-indole-4-yl]-5-chloro-3-methylbenzo[b]thiophene-2-sulfonamide], the inhibition at 1 µM [1] was 83.9%.
Cc1c(S(=O)(=O)N2CCC(N3C(=O)OCc4ccccc43)CC2)sc2ccc(Cl)cc12 [Example 3b, 1-[1-(5-chloro-3-methyl-benzo[b]tiophene-2-sulfonyl)-piperidine-4-yl]-1,4-dihydro-benzo[d][1,3]oxazine-2-one] gave a Ki of 107 nM.
In the case of CN(C)CCn1ccc2cc(NS(=O)(=O)c3c(Cl)nc4sccn34)ccc21 [Example 11e, N-[1-(2-dimethylaminoethyl)-1H-indole-5-yl]-6-chloroimidazo[2,1-b]thiazole-5-sulfonamide], the Ki [5] is reported as 1.89 nM.
Compound CCN(CC)CCc1c[nH]c2ccc(NS(=O)(=O)c3cc(Cl)cc(Cl)c3)cc12 [Example 4c, N-[3-(2-diethylaminoethyl)-1H-indol-5-yl]-3,5-dichlorobenzenesulphonamide] has a Ki [4] of 9.3 nM.
For Cc1cccc2c1N(C1CCN(S(=O)(=O)c3cccc4cccnc34)CC1)C(=O)OC2 [Example 6b, 8-Methyl-1-[1-(quinolinyl-8-sulfonyl)-piperidine-4-yl]-1,4-dihydro-benzo[d][1,3]oxazine-2-one], the Ki (table 2b, compounds of general formula (Ib)) was 166 nM.
For CN1CCC(c2c[nH]c3ccc(NS(=O)(=O)c4ccc(-c5ccccc5)cc4)cc23)CC1 [Example 15c, N-[3-(1-methylpiperidin-4-yl)-1H-indol-5-yl]-4-phenylbenzenesulphonamide], the “% Inhibition 10^−6 M” value [6] was 97.4 ± 0.8% and the Ki [4] was 6.8 nM.
CCN(CC)CCc1c[nH]c2ccc(NS(=O)(=O)c3cccc4ccccc34)cc12 [Example 3c, Hydrochloride N-[3-(2-diethylaminoethyl)-1H-indol-5-yl]naphthalene-1-sulphonamide] gave a Ki [4] of 3.5 nM.
CN(C)CCn1ccc2c(NS(=O)(=O)c3ccc(Oc4ccccc4)cc3)cccc21 [Example 6d, N-[1-(2-dimethylaminoethyl)-1H-indole-4-yl]-4-phenoxybenzenesulfonamide] was tested, and the “% Inhibition 10^−6 M” value [1] was 55.8%.
In the case of CN(C)CCn1ccc2ccc(NS(=O)(=O)c3ccc4ccccc4c3)cc21 [Example 2f, N-[1-(2-Dimethylaminoethyl)-1H-indol-6-yl]-naphthalene-2-sulfonamide], the Ki is reported as 41.2 nM and the inhibition at 1 µM is reported as 97.7%.
Cc1cccc2c1N(C1CCN(S(=O)(=O)c3cccc4c(N(C)C)cccc34)CC1)C(=O)OC2 [Example 7b, 1-[1-(5-Dimethylamino-naphthyl-1-sulfonyl)-piperidine-4-yl]-8-Methyl-1,4-dihydro-benzo[d][1,3]oxazine-2-one] was tested, and the inhibition at 1 µM (10^−6 M, table 2b, compounds of general formula (Ib)) was 88%.
CN(C)CCn1ccc2c(NS(=O)(=O)c3cccc4ccccc34)cccc21 [Example 3d, N-[1-(2-dimethylaminoethyl)-1H-indole-4-yl]-naphtalene-1-sulfonamide] was tested, and the “% Inhibition 10^−6 M” value [1] was 94.8%.
In the case of CN1CCC(c2c[nH]c3ccc(NS(=O)(=O)c4ccc(Cl)s4)cc23)CC1 [Example 14c, N-[3-(1-methylpiperidin-4-yl)-1H-indol-5-yl]-5-chlorothiophene-2-sulphonamide], the “% Inhibition 10^−6 M” value [6] is reported as 95.7 ± 3.4% and the Ki [4] is reported as 24.3 nM.
Work on CN(C)CCn1ccc2cc(NS(=O)(=O)c3cccc4ccccc34)ccc21 [Example 3e, N-[1-(2-dimethylaminoethyl)-1H-indole-5-yl]-naphthalene-1-sulfonamide] yielded a Ki [5] of 94.2 nM.
CN1CC=C(c2cn(S(=O)(=O)C3CCCCC3)c3ccc(N)cc23)CC1 [Example 3h, 5-amino-1-cyclohexanesulfonyl-3-(1-methyl-1,2,3,6-tetrahydropyridine-4-yl)-1H-indole] was tested, and the Ki (table 1h, compounds of general formula (Ih)) was 55.1 nM.
